According to patent publication US20260124281A1, “FORMULATIONS COMPRISING ACID-NEUTRALIZING POLYMER FOR ORAL ADMINISTRATION OF PARATHYROID HORMONE” (Entera Bio Ltd., priority 2022, published 2026):

How the values were obtained:
pepsin = assay: Proteolysis of hPTH(1-34) by pepsin at various pH values; type: in vitro ADME; details: 13.5 μg/ml hPTH(1-34), 150 μg/ml pepsin, 37° C., media pH 2-7
Protocol: The effect of pH on peptide proteolysis by pepsin was determined by incubating 13.5 μg/ml human parathyroid hormone (1-34) (hPTH(1-34)) with 150 μg/ml pepsin, at various pH values, and determining the percentage of hPTH(1-34) which remained. The amount of hPTH(1-34) remaining upon addition to 150 μg/ml pepsin at 37° C., was determined in media with different pH values, followed by immediate (10 second) vortex and centrifugation for 3 minutes at 4° C., 4000 RCF. The following media were used: simulated gastric fluid (pH 2), prepared from 0.01 M HCl and NaCl; phthalate buffer (pH 4 or 5); and phosphate buffer (pH 6 or 7).

[1] = pH upon addition of test substance to 0.1 M HCl solution (pH 1.2), pH meter; type: physicochemical
Protocol: The solution pH was determined using an MP-103 pH-meter (MRC, Israel) equipped with ELC-10-00 electrode (MRC, Israel) or with a thin electrode HI1083 (HANNA instruments Inc.), shortly after dissolution and up to 26 hours later in order to ensure that the pH remained stable. The highest pH value obtained during the experimental time period was recorded in order to compare the acid-neutralizing capacity of each substance.
SNAC and the basic polymers sodium alginate, sodium carboxymethylcellulose in non-crosslinked (Na-CMC) and crosslinked (croscarmellose sodium, CCS) forms, and sodium starch glycolate (SSG) were dissolved in various volumes of 0.1 M HCl solution (pH 1.2) at concentrations of 1, 2, 4, 10, 20, 50, 100 and 150 mg/ml, and the solution pH was determined using an MP-103 pH-meter (MRC, Israel) equipped with ELC-10-00 electrode (MRC, Israel), as described in the Materials and Methods section hereinabove.
In order to obtain a beneficial rise in pH with a reduced loss of the active form of the absorption enhancer, the effect of various concentrations of different polymers containing carboxylate groups (sodium alginate, sodium starch glycolate, sodium carboxymethylcellulose, and croscarmellose sodium) on pH upon addition to a 0.1 M HCl solution (pH 1.2) was also evaluated. FIG. 3A presents pH values determined using an MP-103 pH-meter (MRC, Israel) equipped with ELC-10-00 electrode (MRC, Israel) and FIG. 3B presents pH values determined using an MP-103 pH-meter (MRC, Israel) equipped with a thin electrode HI1083 (HANNA instruments Inc.).

SMILES | pH at which proteolysis of hPTH(1-34) by pepsin was inhibited (pepsin) | pH 5 minutes after dissolution ([1]; 10 mg/ml SNAC added to HCl solution (pH 1.2)) | pH 5 minutes after dissolution ([1]; 20 mg/ml SNAC added to HCl solution (pH 1.2)) | pH 5 minutes after dissolution ([1]; 100 mg/ml SNAC added to HCl solution (pH 1.2)) | dissolution upon addition to HCl solution ([1]; HCl solution (pH 1.2))
CC[C@H](C)[C@H](NC(=O)[C@H](CCC(=O)O)NC(=O)[C@H](CO)NC(=O)[C@@H](NC(=O)[C@@H](N)CO)C(C)C)C(=O)N[C@@H](CCC(N)=O)C(=O)N[C@@H](CC(C)C)C(=O)N[C@@H](CCSC)C(=O)N[C@@H](Cc1cnc[nH]1)C(=O)N[C@@H](CC(N)=O)C(=O)N[C@@H](CC(C)C)C(=O)NCC(=O)N[C@@H](CCCCN)C(=O)N[C@@H](Cc1cnc[nH]1)C(=O)N[C@@H](CC(C)C)C(=O)N[C@@H](CC(N)=O)C(=O)N[C@@H](CO)C(=O)N[C@@H](CCSC)C(=O)N[C@@H](CCC(=O)O)C(=O)N[C@@H](CCCN=C(N)N)C(=O)N[C@H](C(=O)N[C@@H](CCC(=O)O)C(=O)N[C@@H](Cc1c[nH]c2ccccc12)C(=O)N[C@@H](CC(C)C)C(=O)N[C@@H](CCCN=C(N)N)C(=O)N[C@@H](CCCCN)C(=O)N[C@@H](CCCCN)C(=O)N[C@@H](CC(C)C)C(=O)N[C@@H](CCC(N)=O)C(=O)N[C@@H](CC(=O)O)C(=O)N[C@H](C(=O)N[C@@H](Cc1cnc[nH]1)C(=O)N[C@@H](CC(N)=O)C(=O)N[C@@H](Cc1ccccc1)C(=O)O)C(C)C)C(C)C [hPTH(1-34), teriparatide] | ≥ 6 |  |  |  | 
O=C(O)CCCCCCCNC(=O)c1ccccc1O [SNAC, sodium 8-N-(2-hydroxybenzoyl)aminocaprylate] |  | about 1.5 | 6.5 | about 7.5 | dissolved rapidly
